Assay [1] has as its system mouse SKH2. As to the kind of experiment: In vivo pro-pigmenting activity by topical route with NB-UVB, clinical score of pigmentation. The settings on record: 8% topical on the back of SKH2 mice, 43 days, in combination with NB-UVB irradiation (60 mJ/cm2); versus irradiated group treated with the vehicle. The method, then: (§1) In mice, melanocytes are not present in the epidermis of hair-covered areas but are mainly present in the hair follicles. Pigmentation can be induced by irradiation with UVB in combination with topical or oral agents. The pigmentation changes can be quantified by various means such as clinical score pigmentation and pigmentation measurement by image analysis.
(§2) The evaluation of the MC1R receptor agonists pro-pigmenting activity in combination with NB-UVB irradiation (60 mJ/cm2) is performed by topical application on the back of the mouse SKH2 during 43 days with MC1R agonist compound A at 8% or MC1R agonist compound B at 8% in combination with NB-UVB radiation.
(§3) Practically, the animals were irradiated using the system Biospectra equipped NB-UVB lamps (peak emission maximum at 312 nm) irradiation at 3 times per week at 60 mJ/cm^2 on Monday, Wednesday and Friday. The treatment is carried out 5 days a week and 50 μl of the test product (compounds A or B) is diluted in the vehicle and applied on the back. In the case of associations with radiation, the compounds are administered after irradiation.
(§4) Then, the pigmentation changes is quantified by clinical score pigmentation and pigmentation measurement by image analysis.
The clinical score of animals is performed 1 time per week before irradiation. The pigmentation is evaluated with a score on a scale of 0 to 4. […]

In assay [2] the test system is mouse SKH2. As to the kind of experiment: In vivo pro-pigmenting activity by topical route with NB-UVB, quantification of pigmentation by image analysis at the end of study. The settings on record: 8% topical on the back of SKH2 mice, in combination with NB-UVB irradiation (60 mJ/cm2). The method, then:
as §1, §2, §3, §4
At the end of the study, for each animal, two digital photographs of the skin of the back are made with a high quality dermascope and digital camera such as the LiteScope™. […]

In the case of `CCOC(=O)C1(C2CCCCC2)CCN(C(=O)[C@@H](Cc2ccc(OC)cc2)NC(=O)NCCc2c[nH]cn2)CC1` [Compound A, 4-Cyclohexyl-1-[(R)-2-{3-[2-(1H-imidazol-4-yl)-ethyl]-ureido}-3-(4-methoxy-phenyl)-propionyl]-piperidine-4-ethyl-carboxylate], the “pigmentation of the skin (clinical score of pigmentation, FIGS. 1 and 2)” value with mouse SKH2 [1] was “significantly increases the pigmentation of the skin”. Also, the “pigmentation level at the end of the study by image analysis (FIG. 3)” value with mouse SKH2 [2] is recorded as “synergistic effect is confirmed”. Turning to `COc1ccc(C[C@@H](NC(=O)CCc2nc[nH]c2C)C(=O)N2CC(OCC3CC3)(c3ccccc3C)C2)cc1` [compound B, N—[(R)-2-(3-Cyclopropylmethoxy-3-o-tolyl-azetidin-1-yl)-1-(4-methoxy-benzyl)-2-oxo-ethyl]-3-(5-methyl-1H-imidazol-4-yl)-propionamide], the “pigmentation of the skin (clinical score of pigmentation, FIGS. 1 and 2)” value in the assay with mouse SKH2 [1] was “significantly increases the pigmentation of the skin”.

These data come from patent US9610461B2, “Combination of a MC1R receptor agonist and UVB for the treatment and/or prevention of pigmentation disorders” (GALDERMA RESEARCH & DEVELOPMENT, priority 2012, dated 2017).
